What is called IC50 is the concentration that inhibits the measured activity by half.

The results in this text go back to paper PMC9994261 (Cell, 2023).

Data set [1] deals with T1, CYP3A4 (Homo sapiens, UniProt P08684).
T1 construct: human liver microsomes (purchased from BD Gentest as a pooled batch from 150 donors); tissue BD Gentest Cat#452117; host or cells: pooled human liver microsomes (150 donors)
Put plainly: CYP3A4 reversible inhibition in human liver microsomes. The data set is classed as in vitro ADME. The gist of the method:
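Pooled human liver microsomes (0.1 mg/mL, 150 donors) in 0.05 M phosphate pH 7.4 with NADPH-regenerating system. Midazolam (3 μM, 10 min) or testosterone (50 μM, 30 min) incubated with GM, MGM or CGM at 1–30 μM. 1'-Hydroxymidazolam and 6β-hydroxytestosterone formation measured by LC-MS.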
For orientation: Liver microsomes are a subcellular fraction often used to study metabolism.

Data set [2] deals with Mtb H37Rv. The data set is classed as cell-based, Mycobacterium tuberculosis. Particulars: 7-day treatment.
The test system of data set [3] is Mtb H37Rv. Kind of data set: Mouse model of acute TB. In kind it is in vivo. Particulars: 4 weeks.

Molecules are shown by their SMILES. Read-outs that look alike come from different tables or passages of the source.

T1 sequence (P08684 whole entry): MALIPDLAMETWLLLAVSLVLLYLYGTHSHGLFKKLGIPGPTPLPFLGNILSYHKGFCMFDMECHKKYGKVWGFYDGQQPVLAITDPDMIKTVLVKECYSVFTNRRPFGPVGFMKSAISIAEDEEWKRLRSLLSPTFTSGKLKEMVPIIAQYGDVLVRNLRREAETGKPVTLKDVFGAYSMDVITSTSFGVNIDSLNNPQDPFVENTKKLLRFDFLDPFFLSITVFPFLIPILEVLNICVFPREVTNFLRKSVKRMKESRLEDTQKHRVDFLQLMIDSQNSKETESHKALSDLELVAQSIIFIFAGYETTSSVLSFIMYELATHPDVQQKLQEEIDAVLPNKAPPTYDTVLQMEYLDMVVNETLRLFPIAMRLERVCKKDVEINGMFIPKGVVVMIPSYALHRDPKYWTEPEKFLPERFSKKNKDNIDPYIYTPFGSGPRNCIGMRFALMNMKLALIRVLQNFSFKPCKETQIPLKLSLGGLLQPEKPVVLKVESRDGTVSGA

As to `CON=C1CC(C)OC(OC2C(C)CC(C)(OC(=O)NC(C)(C)CNS(=O)(=O)c3ccccc3)C(=O)C(C)C(OC(=O)CC(C)C)C(C)C(C(C)COC3OC(C)C(O)C(OC)C3OC)OC(=O)C(C)C(OC3CC(C)N(C)CC(C)O3)C2C)C1O` (stereo not shown) [SEQ-9], the “Cytochrome 3A4 inhibition (in words)” value in data set [1] is recorded as “abolished”. For the same compound, the IC50 at 10 min in data set [1] (human, microsomes, pH 7.4, midazolam, read-out: CYP3A4 inhibition, IC50 with midazolam as substrate) was more than 30 µM. Further, the IC50 at 30 min in data set [1] (human, microsomes, pH 7.4, testosterone, read-out: CYP3A4 inhibition, IC50 with testosterone as substrate (T)) is more than 50 µM. The “log CFU reduction (in vitro bactericidal activity)” value was 1.5 log CFU in data set [2] (30 μM) and 2.5 log CFU in data set [2] (60 μM). Also, in data set [3] (37.5 to 300 mg/kg oral, 5 days per week, untreated controls died within 4 weeks), the “Survival of infected mice” value was “survived at all doses administered”. For the same compound, the “Minimum effective dose (MED), complete prevention of bacterial growth” value in data set [3] (oral, methylcellulose-Tween formulation) was found to be 300 mg/kg.
